What was measured:
RUES2 cells [1] = experiment: RA concentration in the ventralization cocktail (NKX2.1 and FOXA2 mRNA and protein); assay type: cell-based, human
Method: FIG. 2.(a) Expression of NKX2.1 and FOXA2 mRNA (lower left) and protein (lower right) after culture of RUES2 cells according to the protocol on top of the panel using various concentrations of RA during the ‘ventralization’ stage. Triplicate experiments representative of 3 independent experiments, *, P<0.05, compared with 0.5 μM RA group. (b) 10× tile scan of 25 (5×5) contiguous fields showing expression of FOXA2, SOX2 and NKX2.1 in RUES2 cells cultured according to the protocol on top of the panel. (c) 20× tile scan of 4 (2×2) contiguous fields showing expression of TUJ1, NKX2.1 and FOXA2.1 in RUES2 cells cultured according to the protocol on top of panel (b). […]
Total RNA was extracted using Trizol (Invitrogen), phase lock tubes (5′ Prime) and RNeasy kit (Qiagen, Valencia, Calif.). RNA concentration was measured with a NanoDrop 2000 […] (Thermo Fisher Scientific). […] Real-time quantitative PCR was performed on ABI vii7A Thermocycler [Applied Biosystems (Life Technologies)] using ABI Power SYBR Green PCR Master Mix [Applied Biosystems (Life Technologies)]. […] Absolute quantification of each gene was obtained using a standard curve of serial diluted genomic DNA and normalized to housekeeping genes β-ACTIN and TBP (Tata Box Binding protein). […]

RUES2 cells [2] = experiment: Removing individual factors or blocking signaling pathways during the ventralization stage (d6-d15); assay type: cell-based, human
Method: FIG. 3. Effect of removing individual factors or blocking signaling pathways during the ‘ventralization’ stage (d6-d15) on the expression of FOXA2 and NKX2.1 in RUES2 cells cultured according to the protocol shown on the upper right of the figure. 10× tile scans of 9 (3×3) contiguous fields. Immunofluorescence images represent reproducible results from 3 independent experiments.
Day-15, -25 or -48 cultures in 48-well tissue culture plates were fixed with 4% paraformaldehyde for 15 minutes at room temperature and washed twice with PBS. The cells were permeabilized in PBS with 0.25% triton and 5% fetal donkey serum (Jackson ImmunoResearch, West Grove, Pa.) for 30 min and blocked in 5% fetal donkey serum for 2 hours at room temperature. The cell cultures were stained with one, or a combination of two or three of the following primary antibodies: FOXA2/HNF-3β (goat, Santa Cruz Biotechnology, Inc., Santa Cruz, Calif., Cat#sc-6554, clone M-20, 1:50), TTF-1/Nkx2.1 (mouse, Invitrogen, 18-0221, clone 8G7G3/1, 1:100), TTF-1/Nkx2.1 (Rabbit, Seven Hills Bioreagents, Cincinnati, Ohio, Cat#WRAB-1231, 1:1000), p63α (rabbit, Santa Cruz, sc-8344, clone H-129, 1:100), Sox2 (Rabbit, stemgent, 09-0024, 1:100), Pax 6 (rabbit, Covance, Princeton, N.J., Cat#PRB-278P, 1:300), Pax8 (mouse, Abcam, Cambridge, Mass., Cat#ab53490, 1:100), EpCAM (APC conjugated, mouse, BD Biosciences, BDB347200), Tuj1 (mouse, Sigma, T8578, Clone 2G10, 1:4000), Mucin5AC (mouse (Biotin), Abcam, ab79082, clone 45M1, 1:100), Mucin5B (rabbit, Santa Cruz, sc-20119, clone H-300, 1:100), Mucin2 (rabbit, Santa Cruz, sc-15334, clone H-300, 1:100), Foxj1 (mouse, e-bioscience, San Diego, Calif., Cat#14-9965-82, Clone: 2A5, 1:100), cc-10 (goat, Santa Cruz, clone C-20, sc-9770, 1:100), pro-SPC (rabbit, Seven Hills, WRAB-9337, 1:2000), mature-SPC (rabbit, Seven Hills, WRAB-76694, 1:1000), mature SPB (rabbit, Seven Hills, WRAB-48604, 1:1000), ABCA3 (rabbit, Seven Hills, WRAB-70565, 1:100), Mucin1 (Armenian Hamster, NeoMarkers, Fremont, Calif., Cat#HM-1630-P1ABX, clone MH1, 1:100), Podoplanin (rabbit, Santa Cruz, sc-134482 , FL-162, 1:100), AQP5 (goat, Santa Cruz, sc-9890, clone G-19, 1:100). Secondary antibodies were donkey anti-mouse whole IgG-Alexa Fluor 488, 715-545-150, donkey anti-mouse whole IgG-Alexa Fluor 647, 715-605-150, donkey anti-rabbit whole IgG-Alexa Fluor 488, 711-545-152, donkey anti-rabbit whole IgG-Cy3, 711-166-152, donkey anti-goat whole IgG-Alexa Fluor 488, donkey anti-goat whole IgG-Cy3, 705-165-147, donkey anti-goat whole IgG-Alexa Fluor 647, 705-605-147, all from Jackson ImmunoResearch.
For d6-15 lung progenitor induction (9 days) , the AFE from Example 3 were treated with a ‘ventralization’ cocktail containing CHIR99021, 3 μM (WNT signaling agonist), human FGF10, 10 ng/ml; human FGF7, 10 ng/ml; human BMP4, 10 ng/ml; murine EGF, 20 ng/ml and all-trans retinoic acid (ATRA), 0-1 μM (all from R&D, except CHIR99021 from (Stemgent, Cambridge. Mass.) and ATRA from Sigma) in SFD media for 8-10 days. This treatment produced lung and airway progenitor cells (also herein referred to as “lung field progenitor cells”). At this stage, the lung progenitor cells were early, and they might have committed to a lineage of either lung or airway epithelium, but we wouldn't be able to know because the corresponding airway and distal lung specific markers are not expressed at this stage yet.
To examine the contribution of each of the factors to the specification of lung and airway progenitors, each of the factors was withdrawn from the ‘ventralization’ cocktail (i.e., CHIR99021, FGF10, FGF7, BMP4 and EGF), or blocked by specific inhibitors (i.e., NOGGIN as biological inhibitor of BMP4 signaling and IWP2 as pharmacological inhibitor of WNT signaling), or added at different concentrations (i.e., RA 0, 0.05, 0.1, 0.5, 1 μM, and BMS493 (10 μM, Tocris) as RA inhibitor). […]

[3] = factor removed from the CFKB cocktail, d6-d15

CC1=C(/C=C/C(C)=C/C=C/C(C)=C/C(=O)O)C(C)(C)CCC1 [RA, all-trans retinoic acid]
NKX2.1 mRNA and NKX2.1+ fraction (RUES2 cells [1]; higher RA concentrations, FOXA2+ endoderm maintained): dropped | induction of NKX2.1 and FOXA2 mRNA and protein (RUES2 cells [1]; low RA concentrations (0.05-0.1 μM)): optimal induction

Cc1ccc2nc(NC(=O)CSc3nc4c(c(=O)n3-c3ccccc3)SCC4)sc2c1 [IWP2]
generation of NKX2.1+ cells (RUES2 cells [2]; CHIR removed plus additional blockade of endogenous WNT signaling by the substance): completely abrogated

Cc1c[nH]c(-c2cnc(NCCNc3ccc(C#N)cn3)nc2-c2ccc(Cl)cc2Cl)n1 [CHIR]
effect of removing the factor on generation of FOXA2+ and FOXA2+NKX2.1+ cells (RUES2 cells [2]; [3]): severely reduced

B1: FGF7: human FGF7 (KGF), factor of the ventralization cocktail (protein, UniProt P21781 32-194, looked up)
Fibroblast growth factor 7: CNDMTPEQMATNVNCSSPERHTRSYDYMEGGDIRVRRLFCRTQWYLRIDKRGKVKGTQEMKNNYNIMEIRTVAVGIVAIKGVESEFYLAMNKEGKLYAKKECNEDCNFKELILENHYNTYASAKWTHNGGEMFVALNQKGIPVRGKKTKKEQKTAHFLPMAIT
effect of removing the factor on generation of FOXA2+ and FOXA2+NKX2.1+ cells (RUES2 cells [2]; [3]): no effect

B2: FGF10: human FGF10, factor of the ventralization cocktail (protein, UniProt O15520 38-208, looked up)
Fibroblast growth factor 10: QALGQDMVSPEATNSSSSSFSSPSSAGRHVRSYNHLQGDVRWRKLFSFTKYFLKIEKNGKVSGTKKENCPYSILEITSVEIGVVAVKAINSNYYLAMNKKGKLYGSKEFNNDCKLKERIEENGYNTYASFNWQHNGRQMYVALNGKGAPRRGQKTRRKNTSAHFLPMVVHS
effect of removing the factor on generation of FOXA2+ and FOXA2+NKX2.1+ cells (RUES2 cells [2]; [3]): no effect

B3: NOGGIN: biological inhibitor of BMP4 signaling (protein, UniProt Q13253 28-232, looked up)
Noggin: QHYLHIRPAPSDNLPLVDLIEHPDPIFDPKEKDLNETLLRSLLGGHYDPGFMATSPPEDRPGGGGGAAGGAEDLAELDQLLRQRPSGAMPSEIKGLEFSEGLAQGKKQRLSKKLRRKLQMWLWSQTFCPVLYAWNDLGSRFWPRYVKVGSCFSKRSCSVPEGMVCKPSKSVHLTVLRWRCQRRGGQRCGWIPIQYPIISECKCSC
generation of FOXA2+NKX2.1+ cells (RUES2 cells [2]; BMP signaling blocked by addition of the substance during ventralization stage): less than 5%

B4: BMP4: human BMP4, factor of the ventralization cocktail (protein, UniProt P12644 293-408, looked up)
Bone morphogenetic protein 4: SPKHHSQRARKKNKNCRRHSLYVDFSDVGWNDWIVAPPGYQAFYCHGDCPFPLADHLNSTNHAIVQTLVNSVNSSIPKACCVPTELSAISMLYLDEYDKVVLKNYQEMVVEGCGCR
generation of NKX2.1+ cells after removing the factor (RUES2 cells [2]; [3]): approximately 40%

— patent publication US9988606B2, “Generation of airway and lung progenitors and epithelial cells and three-dimensional anterior foregut spheres” (THE TRUSTEES OF COLUMBIA UNIVERSITY IN THE CITY OF NEW YORK, priority 2012, dated 2018)
